Measurements as given in publication PMC9958940 (Viruses, 2023).
Starred links: 1 amine or outer side, 2 acyl side, 3 side chain; linkers in the order of their positions; H or OH if unused. Positions of bridges follow the written chain, without caps; N, C: chain ends. Non-standard residues stand in square brackets, D forms with d. Residues, ends and D or L forms follow the SMILES beside them. *: point of attachment. hTyr(3S-OH,4S-OH,3'-OSO3H) = N[C@H](C(=O)O)[C@H](O)[C@@H](O)c1ccc(O)c(OS(=O)(=O)O)c1; Orn(4R-OH,5R-OH) = O=C([C@H](C[C@@H](O)[C@@H](O)N[*:3])N[*:1])[*:2]; Pro(3S-OH,4S-Me) = C[C@H]1CN[C@H](C(=O)O)[C@H]1O; X1 = CCCCCOc1ccc(-c2cc(-c3ccc(C(=O)*)cc3)no2)cc1; Gln(3R-OH) = NC(=O)C[C@@H](O)[C@H](N)C(=O)O; Hyp = O=C(O)[C@@H]1C[C@@H](O)CN1

Tests used:
[1] = tested on: SARS-CoV-2 E406W variant; type: cell-based; conditions: read-out: SARS-CoV-2 RNA IC50, E406W
[2] = tested on: SARS-CoV-2 R10/E796G C799F; type: cell-based; conditions: read-out: SARS-CoV-2 RNA IC50, R10/E796G C799F

**Q.** How did the IC50 [1] turn out when `CCCCCOc1ccc(-c2cc(-c3ccc(C(=O)N[C@H]4C[C@@H](O)[C@@H](O)NC(=O)[C@@H]5[C@@H](O)[C@@H](C)CN5C(=O)[C@H]([C@H](O)CC(N)=O)NC(=O)[C@H]([C@H](O)[C@@H](O)c5ccc(O)c(OS(=O)(=O)O)c5)NC(=O)[C@@H]5C[C@@H](O)CN5C(=O)[C@H]([C@@H](C)O)NC4=O)cc3)no2)cc1` [Micafungin] (X1-[Orn(4R-OH,5R-OH)]T[Hyp][hTyr(3S-OH,4S-OH,3'-OSO3H)][Gln(3R-OH)][Pro(3S-OH,4S-Me)]; lactam 1-C) was run?
**A.** The IC50 was 21.7 µM.

**Q.** What about the IC50 [2] of the same compound?
**A.** Its IC50 is 31.3 µM.
